The values that follow come from PMC6356231, “Capillasterin A, a Novel Pyrano[2,3-f]chromene from the Australian Crinoid Capillaster multiradiatus” (Marine Drugs, 2019).

As a reminder, the EC50 is the concentration needed to bring the measured effect to its halfway point.

Like-named read-outs stand apart in the source and are kept apart here.

Series [1] concerns multidrug transporter ABCG2. The arrangement: method as in PMID 20627559. The conditions noted are these: cited from earlier work.
Series [2] has as its system GFP-expressing immortalised mouse olfactory ensheathing cells (mOEC). Description: mOEC cell proliferation (resazurin viability) assay. The class given is cell-based. The conditions noted are these: 10 µM, 24 hours of treatment. As for the experimental part: Compounds 1–7 have now been added to the Davis Open-Access Compound Library housed at Compounds Australia, Griffith University, where they are available for collaboration in drug discovery or chemical biology research.
The cell proliferation assay was performed according to the method described by Chen et al., with modification. Briefly, GFP-expressing immortalised mouse OECs (mOEC) were seeded at 2000 cells/well in a 384-well microplate (Greiner Bio-One, Kremsmünster, Austria) with a Multidrop™ Combi Reagent Dispenser (Thermo Fisher Scientific, Waltham, MA, USA) using the BioCel Automation System (Agilent Technologies, Santa Clara, CA, USA) and incubated overnight at 37 °C under 5% CO2. After 24 hours, the cells were treated with 4 different concentrations of pure compounds (10, 1, 0.1 and 0.01 µM). 0.2% DMSO was used as negative control. Plates were incubated for 24 hours at 37 °C under 5% CO2. Cell viability of mOECs was measured by adding 5 µL of resazurin (500 μM, Sigma-Aldrich, Sydney, Australia) to the cells and incubated in dark for 4 hours at 37 °C under 5% CO2. The dehydrogenase enzymes found in metabolically active cells will convert resazurin to resofurin products that are soluble in culture medium. The fluorescent resofurin products produced by the viable cells are quantified using an EnVision™ Multilabel (PerkinElmer, Waltham, MA, USA) plate reader at 535/595nm. After that, the cells were fixed and stained with Hoechst (Thermo Fisher Scientific, Waltham, MA, USA) and stored at 4 °C prior to imaging. Cells were imaged automatically using Operetta™ (PerkinElmer, Waltham, MA, USA). Individual cell segmentation and cell count were performed using the Harmony 3.5.2® software.
Background: The colour change of resazurin is a common sign of viable cells or microbes.

Another series concerns HIV-1 strain NL4.3. As to the kind of experiment: multi-cycle HIV-1 replication assay in CEM-GXR GFP-reporter T cells. In kind it is cell-based. The conditions noted are these: for EC50: read-out: EC50, in vitro HIV-1 replication; for inhibition of HIV-1 replication (in words): CEM-GXR T cell line. The protocol: The ability of compounds 1–7 to inhibit HIV-1 replication was evaluated in vitro using an established multi-cycle replication assay. Briefly, the CEM-GXR T cell line, which contains an HIV-1 promoter-driven green fluorescent protein (GFP) reporter, was infected with the full-length, infectious HIV-1 strain NL4.3 at a multiplicity of infection of 0.03 [18]. After 24 hours, cells were washed and subsequently incubated with compounds 1–7, the control HIV inhibitor efavirenz, or 0.1% DMSO vehicle control. GFP expression, a marker of viral replication, was then measured by flow cytometry after 72 hours.
(§1) The following reagents were obtained from the NIH AIDS Reagent Program: CEM CD4^+ cells (CEM) from Dr. J.P. Jacobs, [23] and pNL4-3 from M. Martin [24]. Efavirenz and panobinostat were purchased from Sigma-Aldrich (St. Louis, MO, USA). CEM and CEM-derived GXR25 GFP-reporter T cells (CEM-GXR; [18]) were cultured in R10+ medium [RPMI-1640 with HEPES and L-Glutamine (Lonza, Basel, Switzerland), 10% fetal calf serum, 100 U of penicillin/mL, and 100 µg of streptomycin/mL Sigma-Aldrich (St. Louis, MO, USA)]. Production of HIV-1 NL4.3 and multi-cycle HIV-1 replication assays were performed as described previously. Apoptosis assays were performed by staining CEM cells with annexin V-APC (BioLegend, San Diego, CA) according to manufacturer instructions.

For another series, the system named is CEM cells. Description: apoptosis (annexin V-APC) cellular toxicity assay in CEM cells. The conditions noted are these: 72 hours. The class given is cell-based. As for the experimental part: Compounds 1–7 were further assessed for cellular toxicity in CEM cells, the parental cell line of CEM-GXR. After 72 hours’ treatment with compounds, toxicity was assessed by measuring the surface expression of the early apoptotic marker annexin V by flow cytometry (by staining with annexin V-APC). […] In contrast, no increase in apoptosis was observed up to 100 µM for compounds 1–7, with the exception of compound 2, which induced 1.4 ± 0.2 and 2.2 ± 0.4-fold increases at 30 and 100 µM, respectively.
as §1

A short description of series [3]: compound stability (observation). In kind it is physicochemical.
The mark [4] stands for this setting: Human immunodeficiency virus 1, CEM-GXR T cells, HIV-1 NL4.3, MOI 0.03, GFP by flow cytometry after 72 hours, mean ± s.d. of three independent experiments.

As for `CCCc1cc(=O)c2c(O)c3c(OC)cc(O)cc3c(OC)c2o1`, in series [1], the “inhibition of ABCG2 (in words)” value was “inhibit”.
As for `CCCc1cc(=O)c2c(cc(C(C)=O)c3c(OC)cc(=O)oc32)o1` [Compound 1, 5-acetyl-4-methoxy-8-propylpyrano[2,3-f]chromene-2,10-dione], the “increase in mOEC viability (in words)” value in series [2] is given as “none of the compounds showed a significant increase”. In the series with HIV-1 strain NL4.3 (setting [4]), the EC50 is > 100 µM.
On to `CCCc1cc(=O)c2c(O)cc3cc(O)cc(OC)c3c2o1` [Compound 2, comaparvin], for which the “fold increase in apoptotic cells relative to 0.1% DMSO” value in the series on CEM cells (30 µM) came to 1.4 ± 0.2 fold; in the series on CEM cells (100 µM) it was 2.2 ± 0.4 fold. In addition, the “fold increase in activity as compared to 5” value with HIV-1 strain NL4.3 (HIV-1 replication EC50, angular vs linear naphthopyrone) is “approximately 2.0 fold”. In addition, the EC50 in the series on HIV-1 strain NL4.3 (setting [4]) stood at 7.5 ± 1.7 µM.
In the case of `COc1cc(O)cc2cc(O)c3c(=O)cc(C)oc3c12` [Compound 3, TMC-256C1], the “inhibition of HIV-1 replication (in words)” value in the series on HIV-1 strain NL4.3 was “weaker but consistent antiviral activity”. Also, the “fold reduction in activity compared to 2” value in the series on HIV-1 strain NL4.3 (HIV-1 replication EC50, methyl instead of propyl at C-2) came to 3.4 fold. In the series with HIV-1 strain NL4.3 (setting [4]), the EC50 was 25.5 ± 3.4 µM.
Turning to `CCCc1cc(=O)c2c(OC)c(OC)c3cc(O)cc(OC)c3c2o1` [Compound 4, 6-methoxycomaparvin-5-methyl ether], the “increase in mOEC viability (in words)” value in series [2] is given as “none of the compounds showed a significant increase”. Moreover, the EC50 in the series on HIV-1 strain NL4.3 (setting [4]) stood at 14.5 ± 5.8 µM.
`CCCc1cc(=O)c2c(O)c3c(OC)cc(O)cc3cc2o1` [Compound 5, 5,8-dihydroxy-6-methoxy-2-propyl-4H-naphtho[2,3-b]pyran-4-one]: in the series with HIV-1 strain NL4.3 (setting [4]), the EC50 amounted to 15.6 ± 6.5 µM.
Same read-out and setting: as for `CCCc1cc(=O)c2c(O)c3c(OC)cc(O)cc3c(OC)c2o1` [Compound 6, 5,8-dihydroxy-6,10-dimethoxy-2-propyl-4H-naphtho[2,3-b]pyran-4-one], the figure is 20.2 ± 4.9 µM.
In the case of `COc1cc(O)cc2cc3oc(C)cc(=O)c3c(O)c12` [Compound 7, TMC-256A1], in series [2], the “increase in mOEC viability (in words)” value is “none of the compounds showed a significant increase”. The “inhibition of HIV-1 replication (in words)” value with HIV-1 strain NL4.3 is recorded as “no detectable activity”. Moreover, the 50% effective concentration (EC50) in the series on HIV-1 strain NL4.3 (setting [4]) is > 100 µM.
Consider `CCCc1cc(=O)c2c(O)c(OC)c3cc(O)cc(OC)c3c2o1` [Compound 8, 6-methoxycomaparvin], for which the “stability (in words)” value in series [3] is on record as “unstable”.
Regarding `O=C1Nc2ccc(Cl)cc2[C@@](C#CC2CC2)(C(F)(F)F)O1` [Efavirenz, reference compound], in the series on HIV-1 strain NL4.3 (Human immunodeficiency virus 1, CEM-GXR, 72 h), the EC50 is 0.0025 ± 0.0019 µM.
On to `COc1cc(O)cc2cc3oc(C)cc(=O)c3c(O)c12` [TMC-256A1], for which, in series [1], the “inhibition of ABCG2 (in words)” value was “inhibit”.
As to `Cc1[nH]c2ccccc2c1CCNCc1ccc(/C=C/C(=O)NO)cc1` [panobinostat, reference compound], the “fold increase in apoptotic cells relative to 0.1% DMSO” value with CEM cells (3 µM) was found to be 4.2 ± 1.8 fold.
